{"source": "patent US12391679B2", "about": "“Benzamide-substituted bicyclic imidazo- and pyrazolo-fused -pyridine, -pyrimide, and -pyridazine compounds for treatment of inflammatory diseases” (ONCO3R Therapeutics BV, priority 2019, dated 2025)", "data": [{"system": "LPS triggered IL-10 secretion in monocytes", "test": "Monocytes assay: LPS-triggered IL-10 (ELISA)", "format": "cell-based, human", "settings": "Homo sapiens, Monocyte, LPS-triggered IL-10 induction, median maximal fold change vs LPS only, read-out: IL-10 FCmax median", "description": "(§1) This assay evaluates illustrative compounds of the invention for their inhibition of LPS-induced TNFα and LPS triggered IL-10 secretion in monocytes.\n(§2) PBMCs are isolated from human blood samples (buffycoats). The buffy coat is aseptically transferred into a 50 mL Falcon tube, and diluted 1/2 in PBS. Falcon tubes are filled with 20 mL Lymphoprep™, on top of which 25 mL of the buffy coat is carefully added, tubes are centrifuged for 35 min at 400 g in temperature controlled centrifuge, without brake, at 25° C. PBMCs are aspirated from the white interface layer between sample and Lymphoprep™. PBMCs are washed five times in PBS.\n(§3) PBMCs are centrifuged at 300×g for 10 min and resuspended at a density of 1.0*10^7 cells/80 μL Miltenyi buffer (PBS, pH 7.4, 1% FBS, 2 mM EDTA).\n(§4) Starting from this point of the protocol all steps are performed on ice. 20 μL of CD14+ micro-beads are added per 1.0*10^7 cells, the tube is mixed and incubated for 15 min in the fridge at 4° C. Cell suspension volume is adjusted to total volume of 100 mL using Miltenyi buffer, mixed gently and subsequently centrifuged for 10 min at 300×g. Supernatant is discarded and cell pellet is resuspended in 12 mL of Miltenyi buffer.\n(§5) Four LS columns are placed in the MACS Separator (magnet) from Miltenyi Biotec, and are prewet by rinsing with 3 mL of MACS buffer per column. Three mL of cell suspension is added onto the column (max 1*10^8 of labelled cells/column), and columns are subsequently washed 3 times with 3 mL of Miltenyi buffer.\n(§6) The columns are removed from the magnets, and 5 mL of Miltenyi buffer are added to the column to flush out the CD14+ fraction by pushing the plunger into the column. The flushed fractions are collected in a fresh 50 mL Falcon and volume is adjusted to 30 mL using Miltenyi buffer, cells are centrifuged for 10 min at 300×g. The obtained cell pellet is resuspended in 10 mL RPMI w/o FBS, and cell density is determined using a hematologic analyser (Sysmex XS-500i).\n(§7) A compound dilution plate is made in 100% DMSO by 3-fold dilution of 10 mM stock solution. An intermediate dilution plate (10× final concentration) is made by diluting the compound dilution plate 50-fold in RPMI medium.\n(§8) 10 μL of the 10× final concentration compound is added to the cells and incubated for 1 h at 37° C. before addition of trigger. No trigger conditions/trigger conditions are spiked with equal final DMSO concentrations of 0.2% DMSO. 10 μL of 10×LPS (final conc. 200 ng/mL) solution are added to all wells except for the ‘no trigger wells’ where 10 μL medium is added. Supernatant is collected after 4 h of LPS triggering.\n(§9) A Lumitrac 600 Greiner 384-well plate is coated with 40 μL of capture antibody (final concentration of 1 μg/mL in 1×PBS) and stored overnight at 4° C. The next day the plate is washed three times with PBST (PBS+0.05% Tween20) and once with PBS followed by the addition of 100 μL of blocking buffer (1% BSA-5% Sucrose) and plates are sealed and incubated for at least 4 h at RT. After washing the plate once with PBST and once with PBS, 40 μL of standard or sample are added (IL-10 standard curve is prepared using a 1/2 serial dilution starting from 2000 pg/mL; dilutions are made in dilution buffer (PBS+1% BSA)). […] Plates are washed twice with PBST, and once with PBS, whereafter 35 μL of Strep-HRP conjugate (0.5 μg/mL final concentration diluted in dilution buffer) is added. Plates are incubated in the dark, at RT for at least 45 min but no longer than 1 h. Plates are washed twice with PBST, and once with PBS. Thereafter, 50 μL of luminol substrate is added to each well (prepared according to manufacturer's instructions), and incubated for 5 min at RT protected from light.\n(§10) To quantify these increases, fold changes (FC) compared to ‘LPS only’ are calculated for each concentration tested and the maximal FC is calculated (IL-10 FCmax): […]", "values": [{"smiles": "COc1cc(-c2cnc3cc([C@@](C)(C#N)CO)ccn23)cc(OC(F)F)c1C(=O)NC1CC1", "note": "(single isomer, unassigned) [Cpd 189, 4-[7-(1-cyano-2-hydroxy-1-methyl-ethyl)imidazo[1,2-a]pyridin-3-yl]-N-cyclopropyl-2-(difluoromethoxy)-6-methoxy-benzamide]", "maximal fold induction": "< 1.5"}, {"smiles": "COc1cc(-c2cnn3cc(C(C)(C)C#N)ccc23)cc(OC(F)F)c1C(=O)N[C@@H]1C[C@H]1F", "note": "(single isomer, unassigned) [Cpd 257, 4-[6-(1-cyano-1-methyl-ethyl)pyrazolo[1,5-a]pyridin-3-yl]-2-(difluoromethoxy)-N-(2-fluorocyclopropyl)-6-methoxy-benzamide]", "maximal fold induction": "1.5 to 4.5"}, {"smiles": "CCC(C)(C#N)c1ccn2c(-c3cc(OC)c(C(=O)NC4CC4)c(OC(F)F)c3)cnc2c1", "note": "(stereo not drawn) [Cpd 27, 4-[7-(1-cyano-1-methyl-propyl)imidazo[1,2-a]pyridin-3-yl]-N-cyclopropyl-2-(difluoromethoxy)-6-methoxy-benzamide]", "maximal fold induction": "< 1.5"}, {"smiles": "COc1cc(-c2cnc3cc(C(C)(C)O)ccn23)cc(OC(F)F)c1C(=O)NC1CC1", "note": "[Cpd 35, N-cyclopropyl-2-(difluoromethoxy)-4-[7-(1-hydroxy-1-methyl-ethyl)imidazo[1,2-a]pyridin-3-yl]-6-methoxy-benzamide]", "maximal fold induction": "1.5 to 4.5"}, {"smiles": "COc1cc(-c2cnc3cc(C(C)(C)C#N)ccn23)cc(OC(F)F)c1C(=O)NCC1CC1", "note": "[Cpd 39, 4-[7-(1-cyano-1-methyl-ethyl)imidazo[1,2-a]pyridin-3-yl]-N-(cyclopropylmethyl)-2-(difluoromethoxy)-6-methoxy-benzamide]", "maximal fold induction": "1.5 to 4.5"}, {"smiles": "COc1cc(-c2cnc3cc(C(C)(C)C#N)ccn23)cc(OC(F)F)c1C(=O)N1CC(C#N)C1", "note": "[Cpd 77, 1-[4-[7-(1-cyano-1-methyl-ethyl)imidazo[1,2-a]pyridin-3-yl]-2-(difluoromethoxy)-6-methoxy-benzoyl]azetidine-3-carbonitrile]", "maximal fold induction": "1.5 to 4.5"}, {"smiles": "COc1cc(-c2cnc3cc(C(C)(C)C#N)ccn23)cc(OC(F)F)c1C(=O)N[C@@H]1C[C@@H]1F", "note": "[Cpd 79, 4-[7-(1-cyano-1-methyl-ethyl)imidazo[1,2-a]pyridin-3-yl]-2-(difluoromethoxy)-N-[(1R,2S)-2-fluorocyclopropyl]-6-methoxy-benzamide]", "maximal fold induction": "1.5 to 4.5"}, {"smiles": "COc1cc(-c2cnc3cc(C4(C#N)CCOCC4)ccn23)cc(OC)c1C(=O)NCC(F)(F)F", "note": "[Cpd 107, 4-[7-(4-cyanotetrahydropyran-4-yl)imidazo[1,2-a]pyridin-3-yl]-2,6-dimethoxy-N-(2,2,2-trifluoroethyl)benzamide]", "maximal fold induction": "1.5 to 4.5"}, {"smiles": "COc1cc(-c2cnc3cc(C4(C#N)CCOCC4)ccn23)cc(OC(F)F)c1C(=O)NC1CC1", "note": "[Cpd 116, 4-[7-(4-cyanotetrahydropyran-4-yl)imidazo[1,2-a]pyridin-3-yl]-N-cyclopropyl-2-(difluoromethoxy)-6-methoxy-benzamide]", "maximal fold induction": "1.5 to 4.5"}, {"smiles": "COc1cc(-c2cnc3cc(C4(C#N)COC4)ccn23)cc(OC(F)F)c1C(=O)NC1CC1", "note": "[Cpd 117, 4-[7-(3-cyanooxetan-3-yl)imidazo[1,2-a]pyridin-3-yl]-N-cyclopropyl-2-(difluoromethoxy)-6-methoxy-benzamide]", "maximal fold induction": "1.5 to 4.5"}]}, {"system": "LPS triggered IL-10 secretion in monocytes", "test": "Monocytes assay: LPS-triggered IL-10 (ELISA)", "format": "cell-based, human", "settings": "LPS-triggered IL-10 induction, median maximal fold change vs LPS only", "description": "as §1, §2, §3, §4, §5, §6, §7, §8, §9, §10", "values": [{"smiles": "COc1cc(-c2cnc3cc([C@@](C)(C#N)CO)ccn23)cc(OC(F)F)c1C(=O)NC1CC1", "note": "(single isomer, unassigned) [Cpd 190, 4-[7-(1-cyano-2-hydroxy-1-methyl-ethyl)imidazo[1,2-a]pyridin-3-yl]-N-cyclopropyl-2-(difluoromethoxy)-6-methoxy-benzamide]", "IL-10 FCmax median": "+ (+ ≤1.5)"}, {"smiles": "COc1cc(-c2cnn3cc(C(C)(C)C#N)ccc23)cc(OC(F)F)c1C(=O)N[C@@H]1C[C@H]1F", "note": "(single isomer, unassigned) [Cpd 258, 4-[6-(1-cyano-1-methyl-ethyl)pyrazolo[1,5-a]pyridin-3-yl]-2-(difluoromethoxy)-N-(2-fluorocyclopropyl)-6-methoxy-benzamide]", "IL-10 FCmax median": "+ (+ ≤1.5)"}]}]}
